TGI data for 8 compounds are collected here from PubChem BioAssay (NCI).

Some test systems named below: 786-0 renal; ACHN renal; HCC-2998 colon; HOP-92 NSCLC; IGROV1 ovarian; K-562 leukemia; MCF7 breast; MDA-MB-231 breast; OVCAR-4 ovarian; OVCAR-5 ovarian; OVCAR-8 ovarian; SF-295 CNS; SK-MEL-28 melanoma; SNB-19 CNS; SW-620 colon; T-47D breast; U251 CNS; UACC-62 melanoma; RXF 393 renal.
Test in all cases: growth of human tumour cells (NCI), 48 h

Molecules are shown by their SMILES.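 How tested: cells in 96-well plates exposed to compound for 48 hours at five concentrations. TGI is the concentration that stops growth completely.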

Turning to `Cc1ccc2c(c1)C(=O)/C(=N/Nc1ccc(Cl)cc1)CCO2`, the TGI in the assay with 786-0 renal, with ACHN renal, in the assay on HCC-2998 colon, in the assay on HOP-92 NSCLC, in the assay on IGROV1 ovarian and in the assay on K-562 leukemia was more than 100 µM each time. For the same compound, the TGI in the assay with MCF7 breast, in the assay with MDA-MB-231 breast, in the assay with OVCAR-4 ovarian, in the assay on OVCAR-5 ovarian, with OVCAR-8 ovarian and in the assay with SF-295 CNS was more than 100 µM in each case. Moreover, the TGI with SK-MEL-28 melanoma, in the assay on SNB-19 CNS, in the assay on SW-620 colon, in the assay with T-47D breast, with U251 CNS and with UACC-62 melanoma was more than 100 µM each time.

On to `CN1C2CCC1CC(CCOC(c1ccc(F)cc1)c1ccc(F)cc1)C2` (configuration not stated), for which the TGI came out at 30.7 µM with 786-0 renal; 30.8 µM in the assay with ACHN renal; 34.3 µM in the assay with HOP-92 NSCLC; 32.1 µM with IGROV1 ovarian; 35.8 µM in the assay on K-562 leukemia; 29.7 µM in the assay on MDA-MB-231 breast. For the same compound, the TGI with OVCAR-4 ovarian was 38.8 µM; with OVCAR-5 ovarian, 36.7 µM; in the assay on OVCAR-8 ovarian it was 32.1 µM; in the assay with RXF 393 renal, 22.6 µM; in the assay with SF-295 CNS, 30.8 µM; in the assay on SK-MEL-28 melanoma it was 31.7 µM. The TGI came out at 41.6 µM in the assay on SNB-19 CNS, 41.8 µM in the assay on SW-620 colon, 39.2 µM in the assay with T-47D breast and 28.1 µM in the assay on U251 CNS.

For `ClC1(Cl)C(c2ccccc2)C1c1ccccc1` (configuration not stated), the TGI in the assay on 786-0 renal is more than 100 µM; with ACHN renal, 89.7 µM; with HCC-2998 colon, 30 µM; in the assay on K-562 leukemia, more than 100 µM; in the assay with MCF7 breast, more than 100 µM; in the assay with MDA-MB-231 breast, more than 100 µM. For the same compound, the TGI with OVCAR-4 ovarian is more than 100 µM; with OVCAR-5 ovarian, more than 100 µM; with OVCAR-8 ovarian, 77.4 µM; in the assay with RXF 393 renal, 37.8 µM; in the assay on SF-295 CNS it was 82.3 µM; in the assay with SK-MEL-28 melanoma, more than 100 µM. Besides, the TGI in the assay with SNB-19 CNS, with SW-620 colon, in the assay on T-47D breast, in the assay on U251 CNS and in the assay on UACC-62 melanoma was more than 100 µM in each case.

Regarding `COC(=O)c1cc2c(o1)Sc1ccccc1NC2=O`, the TGI in the assay with 786-0 renal, in the assay with ACHN renal, in the assay on HCC-2998 colon, with HOP-92 NSCLC, with IGROV1 ovarian and with K-562 leukemia was more than 100 µM in each case. Moreover, the TGI in the assay with MCF7 breast, in the assay on MDA-MB-231 breast, with OVCAR-4 ovarian, with OVCAR-5 ovarian, in the assay on OVCAR-8 ovarian and with SF-295 CNS was more than 100 µM throughout. Moreover, the TGI in the assay on SK-MEL-28 melanoma, in the assay on SNB-19 CNS, in the assay on SW-620 colon, in the assay with T-47D breast, in the assay on U251 CNS and with UACC-62 melanoma was more than 100 µM in each case.

In the case of `COc1ccc2nc3c([N+](=O)[O-])ccc4c3c(c2c1)N=CN4CCCN(C)C`, the TGI in the assay on 786-0 renal is 14.3 µM; in the assay on ACHN renal it was 15.3 µM; with HCC-2998 colon, 6.54 µM; with HOP-92 NSCLC, 8.94 µM; in the assay with IGROV1 ovarian, 6.16 µM; in the assay with K-562 leukemia, 2.19 µM. In addition, the TGI came out at 11.6 µM with MCF7 breast; 8.27 µM with MDA-MB-231 breast; 25.5 µM with OVCAR-5 ovarian; 25.7 µM with OVCAR-8 ovarian; 18.2 µM with SF-295 CNS; 31.5 µM in the assay on SK-MEL-28 melanoma. The TGI with SNB-19 CNS is 22.2 µM; in the assay with SW-620 colon, more than 44.3 µM; in the assay with T-47D breast, 27.4 µM; with U251 CNS, 24.3 µM; in the assay with UACC-62 melanoma, 28.1 µM.

Turning to `CC(=O)Oc1cc2c(n(C)c1=O)-c1ccccc1C2`, the TGI in the assay with 786-0 renal, with ACHN renal, with HCC-2998 colon, in the assay on HOP-92 NSCLC, in the assay on IGROV1 ovarian and in the assay on K-562 leukemia was more than 100 µM throughout. The TGI in the assay with MDA-MB-231 breast, in the assay with OVCAR-4 ovarian, in the assay with OVCAR-5 ovarian, in the assay on OVCAR-8 ovarian, with RXF 393 renal and in the assay on SF-295 CNS was more than 100 µM each time. Besides, the TGI is more than 100 µM with SK-MEL-28 melanoma; more than 100 µM in the assay on SNB-19 CNS; 65.9 µM with SW-620 colon; more than 100 µM with T-47D breast; more than 100 µM with U251 CNS; more than 100 µM in the assay with UACC-62 melanoma.

In the case of `CCN(CC)CCC(=O)NC1c2ccc(Cl)cc2Oc2c(C)cccc21` (configuration not stated), the TGI with 786-0 renal is 25.2 µM; in the assay with HCC-2998 colon, 39 µM; with HOP-92 NSCLC it was 40.8 µM; in the assay on IGROV1 ovarian, 40 µM; in the assay with K-562 leukemia it was 40.7 µM; in the assay with MCF7 breast, 31 µM. In addition, the TGI in the assay on MDA-MB-231 breast was found to be 40.8 µM; with OVCAR-4 ovarian, 28.9 µM; with OVCAR-5 ovarian, 29.2 µM; with OVCAR-8 ovarian, 31.4 µM; in the assay on SF-295 CNS it was 33.9 µM; in the assay on SK-MEL-28 melanoma, 27.9 µM. The TGI in the assay with SNB-19 CNS was found to be 27.1 µM; with SW-620 colon it was 33.2 µM; in the assay with T-47D breast, 31.5 µM; in the assay with UACC-62 melanoma it was 34 µM.

Take `Cc1oc2c(c1C)S(=O)(=O)C(C#N)C(c1ccccc1)N2` (configuration not stated): the TGI in the assay on 786-0 renal, in the assay on ACHN renal, with HCC-2998 colon, in the assay on HOP-92 NSCLC, with IGROV1 ovarian and with MCF7 breast was more than 100 µM each time. Moreover, the TGI in the assay on MDA-MB-231 breast, with OVCAR-4 ovarian, in the assay on OVCAR-5 ovarian, with OVCAR-8 ovarian, in the assay with SF-295 CNS and with SK-MEL-28 melanoma was more than 100 µM each time. In addition, the TGI with SNB-19 CNS, in the assay with SW-620 colon, in the assay with T-47D breast, in the assay on U251 CNS and with UACC-62 melanoma was more than 100 µM each time.
